Laboratory results published in BindingDB's records for doi:10.1021/jm049496b (University of Colorado, 2004).

Columns and labels:
[1] = target: T1, 7-dehydrocholesterol reductase (Homo sapiens, UniProt Q9UBM7); assay: Growth inhibition of MCF7 cells expressing ER and antiestrogen binding sites
T1 sequence (Q9UBM7 whole entry): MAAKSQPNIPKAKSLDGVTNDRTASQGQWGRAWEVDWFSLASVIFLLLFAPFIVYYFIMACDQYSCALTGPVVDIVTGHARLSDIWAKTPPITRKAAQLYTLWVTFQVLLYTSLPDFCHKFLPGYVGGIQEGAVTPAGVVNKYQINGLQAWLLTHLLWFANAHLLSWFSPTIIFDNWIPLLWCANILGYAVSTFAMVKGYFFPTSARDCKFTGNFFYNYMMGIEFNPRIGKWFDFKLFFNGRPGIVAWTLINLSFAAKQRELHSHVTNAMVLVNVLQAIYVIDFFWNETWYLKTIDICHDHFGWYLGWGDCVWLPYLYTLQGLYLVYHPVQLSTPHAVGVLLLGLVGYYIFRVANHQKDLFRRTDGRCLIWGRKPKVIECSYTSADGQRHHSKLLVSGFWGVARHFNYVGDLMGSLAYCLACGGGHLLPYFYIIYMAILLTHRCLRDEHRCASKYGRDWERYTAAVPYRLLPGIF

[2] = target: T1, 7-dehydrocholesterol reductase; assay: Growth inhibition of MDA-MB-231 cells containing antiestrogen binding sites
[3] = target: T1, 7-dehydrocholesterol reductase; assay: Growth inhibition of multidrug resistant MCF7/Adr cells containing antiestrogen binding sites
[4] = target: T1, 7-dehydrocholesterol reductase; assay: Growth inhibition of MDA-MB-435 cells containing antiestrogen binding sites

Question: What does the source list for `CC/C(=C(/c1ccc(O)cc1)c1ccc(OCCN(C)CCOCCOCCO/N=C/c2ccc(O)c(C(=O)NCN[C@H]3C[C@H](O[C@H]4C[C@](O)(C(=O)CO)Cc5c(O)c6c(c(O)c54)C(=O)c4c(OC)cccc4C6=O)O[C@@H](C)[C@H]3O)c2)cc1)c1ccccc1`?
Answer: IC50 [1]: 30 nM; IC50 [2]: 30 nM; IC50 [3]: 60 nM; IC50 [4]: 40 nM

Question: Which IC50 [1] does the source give for `COc1cccc2c1C(=O)c1c(O)c3c(c(O)c1C2=O)C[C@@](O)(C(=O)CO)C[C@@H]3O[C@H]1C[C@H](NCNC(=O)c2ccccc2O)[C@H](O)[C@H](C)O1` here?
Answer: Its IC50 is 70 nM.

Question: What about the IC50 [2] of the same molecule?
Answer: Its IC50 is 80 nM.

Question: What about the IC50 [3] of the same molecule?
Answer: The IC50 was 2000 nM.

Question: And the IC50 [4]?
Answer: The IC50 was 50 nM.
